From ChEMBL document CHEMBL5604062, “ASAP - ZIKV NS2B-NS3 protease fluorescence dose response” (2024) come the findings set out here.

“And” between values parts separate entries of the source, which are not always exact repeats. Identical values can stand only once. Some results are limits rather than exact numbers.

One may read the IC50 as the midpoint of a concentration-inhibition curve. A low value points to greater potency in that assay.

Assay [1] concerns the target T1, Nonstructural protein 3 (Zika virus, UniProt A0A024AXB9). The assay can be described thus: Functional biochemical assay to identify treatments for viral infectious disease that targets Zika NS2B-NS3 protease. Utilizing a direct enzyme activity measurement method, reading the fluorescence intensity is used to characterize the relative potency of inhibitors as IC50. Synthetic construct has been made based on Zika virus (strain PRVABC59) by Centre for Medicines Discovery, University of Oxford, and the assay has been performed by Stanford University.The protocol is publicly available: dx.doi.org/10.17504/protocols.io.x54v9r83zv3e/v1.

Assay [2] deals with T1, Nonstructural protein 3. Put plainly: Functional biochemical assay to identify treatments for viral infectious disease that targets Zika NS2B-NS3 protease. Utilizing a direct enzyme activity measurement method, reading the fluorescence intensity is used to characterize the relative potency of inhibitors as IC50. The arrangement: species or system PRVABC59.
Assay [3] has as its target T1, Nonstructural protein 3. Put plainly: Functional biochemical assay to identify treatments for viral infectious disease that targets Zika NS2B-NS3 protease. Utilizing a direct enzyme activity measurement method, reading the fluorescence intensity is used to characterize the relative potency of inhibitors as IC50. Synthetic construct has been made based on Zika virus (strain PRVABC59) by Centre for Medicines Discovery, University of Oxford, and the assay has been performed by Enamine biological services, Bienta Ltd.The protocol is publicly available: dx.doi.org/10.17504/protocols.io.36wgqn273gk5/v1.

T1 sequence (A0A024AXB9 whole entry): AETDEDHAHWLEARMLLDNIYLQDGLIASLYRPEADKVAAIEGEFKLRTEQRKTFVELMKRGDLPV

The molecule `O=Cc1ccc(N2CCCCCC2)cc1` returned an IC50 in assay [1] of 65.8 µM. `O=Cc1nc(-c2ccccc2Cl)n2ccccc12` showed an IC50 in assay [1] of 46.3 µM. In turn, `Cc1c(C=O)c2ccccn2c1C(=O)c1ccncc1` showed an IC50 in assay [1] of 36.4 µM. Still for that read-out and setting: as for `O=Cc1ccc(N2CCCCC2)cc1`, the figure is 49.8 µM; as for `CN(C)c1ccc(C=C(C#N)C(N)=O)cc1`, 31 µM. On the same count and under the same terms, with `Cc1nc(C=O)c2ccccn12` the figure was 64.5 µM; with `O=Cc1ccc(N2CCC(C(=O)O)CC2)cc1`, 53.7 µM. For the molecule `Cc1cc(NS(=O)(=O)c2ccc(S(=O)(=O)F)cc2)c[nH]c1=O`, the half-maximal inhibitory concentration (IC50) in assay [1] is 13.1 µM.

In the case of `O=Cc1ccc(N2CCC(C(=O)O)CC2)o1`, in assay [1], the IC50 is 30.4 µM.

Regarding `O=C(NCC(F)F)[C@H](Nc1ncc2c(n1)CNC2)c1cc(Cl)cc(C2CC2)c1`, the IC50 in assay [2] worked out at 4.19 µM; in assay [3] it was 19.6 µM. As for `Cn1nc(CNc2cc(-c3cccnc3)ccn2)cc1C1CC1`, the 50% inhibitory concentration (IC50) in assay [2] and in assay [3] was above 25 µM in each case. As for `Cc1c(C(=O)Nc2ccc3c(c2)C[C@H](C(N)=O)O3)cc(C2CC2)n1C`, the IC50 in assay [2] and in assay [3] was above 25 µM throughout. Regarding `Cc1c(C(=O)Nc2ccc3c(c2)CCC(=O)N3CC2CCC2)cc(C2CC2)n1C`, the IC50 in assay [2] and in assay [3] was above 25 µM in each case.

With `Clc1cc(CNc2ncc3c(n2)CNC3)c2cn[nH]c2c1`, the IC50 in assay [2] and in assay [3] was above 25 µM each time.

As to `CC(=O)N1CC[C@]2(C1)C(=O)Nc1cccc(C(=O)Nc3ccc4c(c3)CNC4)c12`, the IC50 was found to be 0.126 µM in assay [2] and 0.714 µM in assay [3]. Take `CC(C)NC(=O)C[C@H]1NCc2cc(NC(=O)c3cc(Cl)cc4[nH]ncc34)ccc21`: the IC50 in assay [2] is 0.185 µM; in assay [3], 1.06 µM and 2.3 µM. Turning to `CC[C@H]1CO[C@H](C)CN1c1ccc(C=O)cn1`, in assay [1], the midpoint of inhibition, the IC50, lay at 43 µM.

Consider `O=C(NCC(F)F)[C@H](Nc1ccc2c(c1)CNC2)c1cc(Cl)cc2cccnc12`, for which the IC50 in assay [2] was 0.016 µM; in assay [3], 0.053 µM and 0.076 µM. In the case of `Nc1ccc2ccc(B(O)O)cc2c1`, the 50% inhibitory concentration (IC50) in assay [1] was 2.5 µM; in assay [2] it was above 99.5 µM. With `CN(C)C(=O)C[C@H]1NCc2cc(NC(=O)c3cc(Cl)cc4[nH]ncc34)ccc21`, the concentration for half-maximal inhibition (IC50) in assay [2] is 0.481 µM; in assay [3] it was 2.12 µM and 2.36 µM. Regarding `CS(=O)(=O)NC(=O)C[C@H]1NCc2cc(NC(=O)c3cc(Cl)cc4[nH]ncc34)ccc21`, the IC50 in assay [2] was 0.65 µM; in assay [3], 2.21 µM and 1.7 µM. For `CC(C)(C)NC(=O)C[C@H]1NCc2cc(NC(=O)c3cc(Cl)cc4[nH]ncc34)ccc21`, the IC50 was 0.167 µM in assay [2]; 1.07 µM and 0.985 µM in assay [3]. Regarding `CNC(=O)C[C@H]1NCc2cc(NC(=O)c3cc(Cl)cc4[nH]ncc34)ccc21`, the IC50 is 0.187 µM in assay [2]; 0.999 µM and 1.08 µM in assay [3]. For the molecule `Cc1c(C(=O)Nc2cc(C3CCOCC3)ccn2)cc(C2CC2)n1C`, the IC50 in assay [2] and in assay [3] was above 25 µM each time. As for `N#Cc1cccc(-c2nc3c(C(=O)Nc4ccc(F)cc4)cc(Cl)cc3[nH]2)c1`, the IC50 in assay [2] and in assay [3] was above 25 µM in each case. Take `COC(=O)[C@H]1NCc2cc(NC(=O)c3cc(F)cc4[nH]ncc34)ccc21`: the IC50 in assay [2] amounted to 4.84 µM; in assay [3] it was 21.5 µM.

Consider `COCCN(C)C(=O)[C@H](Nc1ccc2c(c1)CNC2)c1cc(Cl)cc(C2CC2)c1`, for which the IC50 in assay [2] is 1.21 µM; in assay [3] it was 4.62 µM. Turning to `Cc1c(C=O)c2ccccn2c1C#N`, the midpoint of inhibition in assay [1], the IC50, lay at 24.9 µM. For `O=C(NCC(F)F)[C@H](Nc1ccc2c(n1)CNC2)c1cc(Cl)cc(C2CC2)c1`, the 50% inhibitory concentration (IC50) in assay [2] is 1.33 µM; in assay [3], 5.5 µM. For the molecule `Cn1nc(CNc2cc([C@H]3CCOC3)ccn2)cc1C1CC1`, the IC50 in assay [2] and in assay [3] was above 25 µM in each case. `O=C([C@H](Nc1ccc2c(c1)CNC2)c1cc(Cl)cc(C2CC2)c1)N1CCOCC1`: the IC50 worked out at 0.401 µM in assay [2] and 2.1 µM in assay [3].
